Patent US7858649B2, “Imidazole derivatives and their use for modulating the GABAA receptor complex” (Neurosearch A/S, priority 2005, dated 2010)

Assays:
[1] = target: benzodiazepine binding site on GABAA receptors (rat cerebral cortex membranes); experiment: In vitro inhibition of 3H-flunitrazepam (3H-FNM) binding; settings: inhibition of specific binding of 3H-FNM (1 nM), cerebral cortex membranes from male Wistar rats, 40 min at 2° C.
Protocol: In Vitro Inhibition of ^3H-flunitrazepam (^3H-FNM) Binding
The GABA recognition site and the benzodiazepine modulatory unit can selectively be labelled with ^3H-flunitrazepam.
Preparations are performed at 0-4° C. unless otherwise indicated. Cerebral cortex from male Wistar rats (150-200 g) is homogenised for 5-10 sec in 20 ml Tris-HCl (30 mM, pH 7.4) using an Ultra-Turrax homogeniser. The suspension is centrifuged at 27,000×g for 15 min and the pellet is washed three times with buffer (centrifuged at 27,000×g for 10 min). The washed pellet is homogenized in 20 ml of buffer and incubated on a water bath (37° C.) for 30 min to remove endogenous GABA and then centrifuged for 10 min at 27,000×g. The pellet is then homogenized in buffer and centrifuged for 10 min at 27,000×g. The final pellet is resuspended in 30 ml buffer and the preparation is frozen and stored at −20° C.
The membrane preparation is thawed and centrifuged at 2° C. for 10 min at 27,000×g. The pellet is washed twice with 20 ml 50 mM Tris-citrate, pH 7.1 using an Ultra-Turrax homogeniser and centrifuged for 10 min at 27,000×g. The final pellet is resuspended in 50 mM Tris-citrate, pH 7.1 (500 ml buffer per g of original tissue), and then used for binding assays. Aliquots of 0.5 ml tissue are added to 25 μl of test solution and 25 μl of ^3H-FNM (1 nM, final concentration), mixed and incubated for 40 min at 2° C. Non-specific binding is determined using Clonazepam (1 μM, final concentration). After incubation the samples are added 5 ml of ice-cold buffer and poured directly onto Whatman GF/C glass fibre filters under suction and immediately washed with 5 ml ice-cold buffer. The amount of radioactivity on the filters is determined by conventional liquid scintillation counting. Specific binding is total binding minus non-specific binding.
25-75% inhibition of specific binding must be obtained, before calculation of an IC50.
The test value will be given as IC50 (the concentration (μM) of the test substance which inhibits the specific binding of ^3H-FNM by 50%).
Co is specific binding in control assays, and […]

Structure (SMILES)	melting point [°C]	IC50 [1] [nM]
Cc1noc(-c2cn(-c3cccc(Br)c3)cn2)n1	200.1 to 202.4	–
Cc1noc(-c2cn(-c3cccc(-c4ccc(F)nc4)c3)cn2)n1 [2-Fluoro-5-{3-[4-(3-methyl-[1,2,4]oxadiazol-5-yl)-imidazol-1-yl]-phenyl}-pyridine]	–	60
Cc1noc(-c2cn(-c3cccc(-c4ccccc4F)c3)cn2)n1 [3-Methyl-5-[1-(2′-fluoro-biphenyl-3-yl)-1H-imidazol-4-yl]-[1,2,4]oxadiazole]	–	33
Cc1noc(-c2cn(-c3cccc(-c4ccccc4OC(F)(F)F)c3)cn2)n1 [3-Methyl-5-[1-(2′-trifluoromethoxy-biphenyl-3-yl)-1H-imidazol-4-yl]-[1,2,4]oxadiazole]	141.6 to 143.9	17
